Article PMC12731105, “Design and Synthesis of New Quinoxaline Analogs to Regenerate Sensory Auditory Hair Cells” (Cells, 2025)

How the values were obtained:
[1] = test system: Neuro-2A; experiment: TACS MTT cell proliferation / metabolic activity assay in Neuro-2A; assay type: cell-based, mouse; conditions: 0.1 to 100 μM
Description: HEI-OC1 cells derived from the mouse OC (kindly provided by Dr. F. Kalinec) were cultured under permissive conditions (33 °C, 10% CO2) as described in [22]. Additionally, we assessed the activity of Qx-derived compounds in the mouse neuroblastoma cell line, Neuro-2A, and the human fibrosarcoma HT-1080 (ATCC, Manassas, VA, USA) following the standard cell culture guidelines provided by the vendor.
In vitro cell proliferation effects of all ten initial compounds (Figure 1A,B) were tested on HEI-OC1, Neuro-2A and HT-1080 cells by TACS® 3-(4,5-dimethylthiazol-2-yl)-2,5-diphenyltetrazolium bromide (MTT) Cell Proliferation Assay (R&D Systems, Minneapolis, MN, USA, 4890-025-K), following the manufacturer’s protocol. Absorbance was measured with SpectraMax® M Series Multi-Mode Microplate Reader with Soft Max Pro 7.2 GxP Software (Molecular Devices, Sunnyvale, CA, USA), and the average OD in control cells was taken as 100% of viability. Upon selecting the most viable compounds (Qx-294 and Qx-301), we proceeded with in vivo experiments. For zebrafish treatment, animals were incubated for varied times with different concentrations (50, 100, 150, 200, 250, and 300 μg/mL) of Qx-294 or Qx-301 diluted in swimming (E3) media or administered via IP injections. Mice treatment followed the same procedures as described in [18]. Following treatment, animals or tissue samples were incubated in Click-it EdU or Click-it Plus TUNEL kits (Thermo Scientific, Waltham, MA, USA), following the manufacturer’s instructions to label proliferating and apoptotic cells, respectively.

[2] = test system: mouse organ of Corti HCs; experiment: M7a immunolabeling and HC counts in the mouse organ of Corti; assay type: in vivo; conditions: mice, single IP 300 mg/kg; for OHC and IHC numbers vs control, 48–72 h: p < 0.05; for Supernumerary M7a-positive cells vs control, 24 h: 24 h post-treatment; for HC numbers in the apex: apical turn
Description: C57BL/6J male and female mice between postnatal day 24 and 30 P-24-30) were randomized into control and experimental groups (9 mice per group per compound), with each experimental group receiving a single intraperitoneal (IP) injection of Qx-294 or Qx-301 at a dose of 300 mg/kg body weight, dissolved in dimethyl sulfoxide (DMSO). Controls consisted of treatment with DMSO alone (vehicle). A total of 90 adult wild-type C57/BL6 mice were used in this study. Based on the analysis, animals were examined at various times following treatment as described below.
Cochlear dissection in mice and immunofluorescence experiments on zebrafish neuromasts and mouse cochleae were performed as previously described. The antibody and labeling kits used in this study included Otoferlin (Developmental Studies Hybridoma Bank, Iowa City, IA, USA, HCS-1), GFP (Novus Biologicals, NB100-1614), and rabbit anti-myosin VIIa (M7a) (Thermo Scientific, Waltham, MA, USA, PA1-936). Species-specific Alexa Fluor-conjugated secondary antibodies were used for detection. Phalloidin conjugated to Alexa 488 (Thermo Scientific, Waltham, MA, USA, O7466) and DAPI were used for labeling stereocilia and the nucleus, respectively.
Cell numbers in mouse cochleae or fish, as well as fish neuromast morphologies, were evaluated in 25 zebrafish per drug and treatment group across three experimental runs. For mouse analyses, 18 cochleae (from 9 mice) per treatment and three experimental repetitions were examined. Images were analyzed at 200X magnification, obtained from different neuromasts and cochlear regions (apex, middle, and base). HCs were quantified in the mouse OC by counting M7a-positive cells, with HC identity further confirmed by phalloidin-labeled stereocilia. Apoptosis and cell proliferation events, on the other hand, were quantified by counting TUNEL- and EdU-positive cells, respectively. Counts were obtained from three randomly selected microscopic fields for each cochlear region, covering at least 1200 μm in total. The number of HCs (IHCs and OHCs) is expressed as units per 200 μm. Cell counting was performed in a double-blind and unbiased manner. A laboratory member conducted the experiments, while another person, who was unaware of the treatment groups to which the cochlea belonged, performed the cell counts. IHCs and OHCs were counted on reconstructed confocal stacks using NIH ImageJ v1.8.0 software. The presence of an HC was defined as an intact, spherical nucleus located in the basal half of an M7a-positive cell. The same person who performed the initial counts recounted a select group of cochleae to determine an intra-rater reliability measure. We used intra-class correlations (ICC) to assess the reliability of the data sets. Reliability statistics were calculated in SPSS v22.0. We used an intra-class correlation coefficient of ≥0.7 to measure strong absolute agreement between the two sets of HC counts being compared. Statistical comparisons between animal groups and treatments were performed using Two-Way ANOVA or Kruskal–Wallis test with post hoc Bonferroni correction for multiple comparisons. Values are presented as ± standard deviation (SD) of the mean. Fluorescence incorporation following treatment with FM1-43 was quantified according to [19] using ImageJ. An unpaired T-test was used to compare the means between treatment groups. p < 0.05 was considered significant. Qx treatments were compared to vehicle-only (control) animals.

[3] = test system: mechanotransduction channel activity of neuromast HCs; experiment: FM1-43 uptake in zebrafish neuromasts; assay type: in vivo, zebrafish (Danio rerio); conditions: 300 μM, 7 h, with or without 1 h recovery
Description: The styryl pyridinium dye FM1-43 provides an optical measure of mechanotransduction channel function and, therefore, was used as a proxy for the viability of the neuromast cells treated with QX-294 or QX-301, as well as indirect information on the functional capability of newly formed HCs. FM1-43FX (Thermo Scientific, Waltham, MA, USA) uptake experiments in zebrafish were performed as previously described. Zebrafish were incubated with E3 alone (control) or in the presence of Qx-294 or Qx-301, both at 300 μM, for 7 h and then immediately exposed to 3 μM FM1-43FX for 40 s. Alternatively, animals were transferred to a fresh E3 solution for 1 h and then exposed to the dye. For mouse treatment, 24, 48, and 72 h after animals were injected with […] Qx-294 or Qx-301, their cochleae were dissected, transiently exposed to FM1-43 FX dye (1 mg/mL) for 45 s, and then fixed in 4% PFA. All animals were P28 at completion of the treatment. Fluorescence incorporated was quantified according to [19] using ImageJ (ImageJ2 1.54r).

[4] = Metabolic stability against S9 fraction; assay type: in vitro ADME; conditions: human, liver S9 fraction, against human S9 fraction (footnote), NADPH, 37 °C; read-out: Metabolic Stability t1/2 (converted)
Description: The metabolic stability of the prodrug was assessed in the mouse liver S9 fraction. Briefly, 5 μg/mL of prodrug was incubated with 1 mg/mL mouse liver S9 fraction supplemented with 1 mg/mL nicotinamide adenine dinucleotide phosphate (NADPH) in Dulbecco’s phosphate-buffered saline at 37 °C. At designated time points (i.e., 0, 0.5, 1, 2 h), 100 μL samples were collected and quenched immediately with 300 μL methanol containing 1 μg/mL internal standard. Samples were vortexed for 30 s and centrifuged at 15,000 rpm for 10 min. Supernatant was assessed by LC/MS.

FM1-43 fluorescence intensity in neuromasts vs control [3] | half-life at 5 μg/mL [4] [h] | SMILES | Proliferative state across all tested concentrations [1] | OHC and IHC numbers vs control, 48–72 h [2] | Supernumerary M7a-positive cells vs control, 24 h [2] | HC numbers in the apex [2]
no significant differences | ~57 | c1ccc2nc(N3CCOCC3)cnc2c1 [Qx-294, 2-(morpholine)-quinoxaline] | modest yet active proliferative state | significant increases in both OHC and IHC numbers | not statistically significant | variable, non-significant trend towards more HCs
no significant differences | 9.1 ± 8.4 | c1ccc2nc(N3CCCC3)cnc2c1 [Qx-301, 2-(pyrrolidine)-quinoxaline] | modest yet active proliferative state | significant increases in both OHC and IHC numbers | not statistically significant | consistent, significant increase in apical HCs
